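Cultured in 96-well plates, cells were exposed to test compound for 48 hours across five concentrations. TGI denotes the concentration required for complete inhibition of growth.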
Legend:
Experiment in all cases: DTP human tumour cell line panel, 48 h
[1] = system: NCI-H522 lung
[2] = system: HT29 colon
[3] = system: UO-31 renal
[4] = system: HOP-92 NSCLC
[5] = system: SNB-19 CNS
[6] = system: SK-OV-3 ovarian
[7] = system: SF-295 CNS
[8] = system: HS 578T breast
[9] = system: CAKI-1 renal
[10] = system: DU-145 prostate
[11] = system: MDA-MB-231 breast
[12] = system: U251 CNS
[13] = system: K-562 leukemia
[14] = system: MALME-3M melanoma
[15] = system: A498 renal
[16] = system: T-47D breast
[17] = system: NCI/ADR-RES ovarian
[18] = system: HCC-2998 colon
[19] = system: COLO 205 colon
[20] = system: SK-MEL-5 melanoma
[21] = system: RPMI-8226 leukemia
[22] = system: BT-549 breast
[23] = system: KM12 colon
[24] = system: SR leukemia
[25] = system: MDA-MB-435
[26] = system: SK-MEL-28 melanoma
[27] = system: NCI-H460 lung
[28] = system: RXF 393 renal
[29] = system: MCF7 breast
[30] = system: HCT-15 colon
[31] = system: OVCAR-8 ovarian
[32] = system: IGROV1 ovarian
[33] = system: OVCAR-4 ovarian
[34] = system: ACHN renal
[35] = system: PC-3 prostate
[36] = system: NCI-H23 lung
[37] = system: SF-268 CNS
[38] = system: SNB-75 CNS
[39] = system: MOLT-4 leukemia
[40] = system: HCT-116 colon
[41] = system: SF-539 CNS
[42] = system: UACC-257 melanoma
[43] = system: SK-MEL-2 melanoma
[44] = system: 786-0 renal
[45] = system: OVCAR-5 ovarian
[46] = system: SN12C renal
[47] = system: LOX IMVI melanoma
[48] = system: EKVX NSCLC
[49] = system: MDA-N
[50] = system: NCI-H226 lung
[51] = system: HL-60(TB) leukemia
[52] = system: OVCAR-3 ovarian
[53] = system: A549 NSCLC
[54] = system: SW-620 colon
[55] = system: TK-10 renal
[56] = system: HOP-62 NSCLC
[57] = system: M14 melanoma
[58] = system: UACC-62 melanoma
[59] = system: CCRF-CEM leukemia

O=C(Oc1cccc2cccnc12)c1cc2cc(CCl)ccc2oc1=O
TGI [1]: 8.87 µM
TGI [2]: 33 µM
TGI [3]: 72.2 µM
TGI [4]: > 100 µM
TGI [5]: > 100 µM
TGI [6]: > 100 µM
TGI [7]: > 100 µM
TGI [8]: > 100 µM
TGI [9]: 85.5 µM
TGI [10]: > 100 µM
TGI [11]: 89.4 µM
TGI [12]: 88.4 µM
TGI [13]: > 100 µM
TGI [14]: 39.7 µM
TGI [15]: > 100 µM
TGI [16]: 54.5 µM
TGI [17]: > 100 µM
TGI [18]: 50.6 µM
TGI [19]: 39.9 µM
TGI [20]: > 100 µM
TGI [21]: > 100 µM
TGI [22]: > 100 µM
TGI [23]: > 100 µM
TGI [24]: > 100 µM
TGI [25]: > 100 µM
TGI [26]: > 100 µM
TGI [27]: 40.9 µM
TGI [28]: 49.6 µM
TGI [29]: 11.4 µM
TGI [30]: 24.2 µM
TGI [31]: > 100 µM
TGI [32]: > 100 µM
TGI [33]: > 100 µM
TGI [34]: > 100 µM
TGI [35]: 31.3 µM
TGI [36]: 42.8 µM
TGI [37]: 52.7 µM
TGI [38]: > 100 µM
TGI [39]: > 100 µM
TGI [40]: 13.8 µM
TGI [41]: > 100 µM
TGI [42]: > 100 µM
TGI [43]: 79.8 µM
TGI [44]: 46.7 µM
TGI [45]: > 100 µM
TGI [46]: 54.4 µM
TGI [47]: > 100 µM
TGI [48]: 6.38 µM
TGI [49]: > 100 µM
TGI [50]: > 100 µM
TGI [51]: 77.4 µM
TGI [52]: > 100 µM
TGI [53]: > 100 µM
TGI [54]: > 100 µM
TGI [55]: > 100 µM
TGI [56]: > 100 µM
TGI [57]: 88.4 µM
TGI [58]: 36.8 µM

COc1cccc2c1-c1ccccc1[C@H](Nc1ccccc1)[C@@]2(C)O
TGI [1]: 8.49 µM
TGI [2]: 14 µM
TGI [3]: 16.9 µM
TGI [4]: 26 µM
TGI [5]: 19.3 µM
TGI [6]: 21.3 µM
TGI [7]: 15.8 µM
TGI [8]: 32 µM
TGI [9]: 17.5 µM
TGI [10]: 17.7 µM
TGI [11]: 24.3 µM
TGI [12]: 16.3 µM
TGI [13]: > 100 µM
TGI [14]: 22.1 µM
TGI [15]: 22 µM
TGI [16]: 30.2 µM
TGI [17]: 15.2 µM
TGI [18]: 19.7 µM
TGI [19]: 10.4 µM
TGI [20]: 14.1 µM
TGI [22]: 23.3 µM
TGI [23]: 15.6 µM
TGI [24]: 22.9 µM
TGI [25]: 6.14 µM
TGI [26]: 26.7 µM
TGI [27]: 14 µM
TGI [28]: 11 µM
TGI [29]: 17.2 µM
TGI [30]: 18.9 µM
TGI [31]: 31 µM
TGI [59]: 50.9 µM
TGI [33]: 25.7 µM
TGI [34]: 21.6 µM
TGI [35]: 19 µM
TGI [36]: 23.2 µM
TGI [37]: 21.1 µM
TGI [38]: 6.85 µM
TGI [39]: > 100 µM
TGI [40]: 15 µM
TGI [41]: 11.6 µM
TGI [42]: 19.7 µM
TGI [43]: 19.9 µM
TGI [44]: 20.2 µM
TGI [45]: 28.2 µM
TGI [46]: 16.8 µM
TGI [47]: 28 µM
TGI [48]: 25.1 µM
TGI [49]: 5.25 µM
TGI [50]: 15.6 µM
TGI [51]: 26.8 µM
TGI [52]: 7.85 µM
TGI [53]: 22.2 µM
TGI [54]: 30 µM
TGI [55]: 22.1 µM
TGI [56]: 19 µM
TGI [57]: 14.8 µM
TGI [58]: 21.6 µM

— PubChem BioAssay (NCI)
